Results: article PMC7504721, “Targeting the Initiator Protease of the Classical Pathway of Complement Using Fragment-Based Drug Discovery” (Molecules, 2020)

Target: T1, C1r-CUB1 (Homo sapiens, UniProt P00736)
T1 construct: The C1r-CUB1 construct corresponds to C1r residues 18–141; made in house; host or cells: E. coli BL21 (DE3)
T1 sequence (P00736 18-141): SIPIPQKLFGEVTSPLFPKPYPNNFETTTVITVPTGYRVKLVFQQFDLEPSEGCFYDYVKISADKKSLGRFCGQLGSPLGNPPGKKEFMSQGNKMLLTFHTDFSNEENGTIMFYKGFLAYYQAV
Test: SPR domain mapping, C1r-CUB1 surface
Type: binding
Conditions: duplicate
Text: Figure 5 Selectivity and mechanistic analysis of CMP-1611 and CMP-1696. (A) Chemical structure of CMP-1611. (B) Chemical structure of CMP-1696. (C) Dose-dependent inhibition by CMP-1611 and CMP-1696 in a classical pathway-specific ELISA. Data were fit with GraphPad Prism using non-linear regression with a log(inhibitor) vs. response model. […] The CMP-778 inhibitory response could not be fit to a dose-response inhibition model. (D) Complement pathway selectivity of CMP-1611 and CMP-1696. Compounds were assessed for their ability to inhibit activation of complement via the lectin and alternative pathways using single doses of 500 μM compound in triplicate. To ensure only lectin pathway activation, 2% (v/v) C1q-depleted serum (CompTech) was used and mannan was used as the activator. To match serum sources and amounts for this assay, the classical pathway assays were repeated here using serum from CompTech at 2% (v/v) final concentration. Alternative pathway activation assays were performed using 20% (v/v) serum (CompTech), alternative pathway buffers, and C3b detection (see Methods and Materials for details). […] (E) C1r, C1r-CUB1, and C1r-CCP2-SP, were immobilized on an SPR sensor chip and binding responses for 500 μM CMP-1611 and CMP-1696 or 10 μM Futhan were each injected in duplicate over all surfaces. Binding responses were corrected for the molecular weight of each analyte and the immobilization level and molecular weight of each surface ligand. Measures of statistical significance in (D) were obtained by comparison of vehicle control using an unpaired t-test (* p < 0.05). To assess selectivity of CMP-1611 and CMP-1696, we performed pathway-specific ELISA-based inhibition assays. […] However, CMP-1696, but not CMP-1611, blocked lectin pathway activation at a similar level as it did the classical pathway (Figure 5D). To further investigate the divergent selectivity profiles of CMP-1611 and CMP-1696, we first sought to clarify the binding site on C1r for each compound. […] We then injected each compound simultaneously over the three surfaces at 500 μM and measured binding responses. […]

Question: For `CN(C)c1cc(N2CCCC(N)C2)ncn1` (stereo not drawn) [CMP-1611], which “relative SPR binding response, C1r-CUB1” value (500 µM compound) is on record?
Answer: bound weakly

Question: Which “relative SPR binding response, C1r-CUB1” value (500 µM compound) does the source give for `COCc1nc(-c2ccc(OC3CNC3)cc2)no1` [CMP-1696] here?
Answer: low binding

Question: For `N=C(N)c1ccc2cc(OC(=O)c3ccc(N=C(N)N)cc3)ccc2c1` [Futhan, reference compound], which “relative SPR binding response, C1r-CUB1” value (10 µM Futhan) is on record?
Answer: very little binding response
